Reference: publication PMC10906247, “From Functional Fatty Acids to Potent and Selective Natural-Product-Inspired Mimetics via Conformational Profiling” (ACS Central Science, 2024)
Like-named read-outs stand apart in the source and are kept apart here.

How the values were obtained:
GPR40 (FFAR1) = GPR40 (FFAR1) (Homo sapiens, UniProt O14842); assay: PathHunter β-arrestin assay (Eurofins Discovery), GPR40; type: cell-based
Protocol: (§1) With these compounds in hand, attention was directed at evaluating their properties as ligands to GPR40, GPR120,[24] and TLX. Initial profiling experiments were conducted targeting the GPCR targets at a single concentration (15 μM) in a commercially available β-arrestin assay.
(§2) Functional assays at GPR40 and GPR120 were conducted by Eurofins Discovery services using their PathHunter® b-Arrestin assay that monitors the activation of a GPCR in a homogenous, non-imaging assay format using a technology developed by DiscoverX called Enzyme Fragment Complementation (EFC) with b-galactosidase (b-Gal) as the functional reporter. b-Arrestin GPCR cell lines built on the principles of EFC are engineered to co-express the ProLinkTM (PK) tagged GPCR and the Enzyme Acceptor (EA) tagged b-Arrestin. Activation of the GPCR-PK induces b-Arrestin-EA recruitment, forcing complementation of the two b-galactosidase enzyme fragments (EA and PK). The resulting functional enzyme hydrolyzes substrate to generate chemiluminescent […]
(§3) Additional information can be found at: www.eurofinsdiscovery.com/solution/b-arrestin Below are dose-response curves generated from Eurofins Discovery services for activity of ligands depicted in Figure 6B at GPR40 (FFAR1) and GPR120. […]

GPR120 [1] = target: T1, GPR120 (Homo sapiens, UniProt Q5NUL3); assay: PathHunter β-arrestin assay (Eurofins Discovery), GPR120; type: cell-based
T1 sequence (Q5NUL3 1-361): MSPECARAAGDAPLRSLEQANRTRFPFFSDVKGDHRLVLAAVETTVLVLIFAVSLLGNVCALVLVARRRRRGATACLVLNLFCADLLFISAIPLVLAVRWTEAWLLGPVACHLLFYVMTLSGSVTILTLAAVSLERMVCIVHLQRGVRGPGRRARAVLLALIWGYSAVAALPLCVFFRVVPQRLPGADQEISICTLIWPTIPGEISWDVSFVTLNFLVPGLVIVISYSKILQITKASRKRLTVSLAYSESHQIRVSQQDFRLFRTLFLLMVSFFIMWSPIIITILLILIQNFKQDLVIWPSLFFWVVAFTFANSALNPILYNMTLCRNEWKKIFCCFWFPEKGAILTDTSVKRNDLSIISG
Protocol: as §1, §2, §3

[2] = target: T2, TLX ligand binding domain (Homo sapiens, UniProt Q9Y466); assay: TLX ligand sensing assay (AlphaScreen, RIP140 NR box peptide recruitment); type: biochemical
T2 construct: purchased NovAliX SAS, Strasbourg, France

GPR40 = conditions: oleic acid; stimulatory activity on CHO-mGPR40 cells; read-out: GPR40 EC50 historical; cited from earlier work
MIN6 cells = test system: MIN6 cells; set-up: method as in PMID 12629551, PMID 12496284; conditions: cited from earlier work
GPR120 [3] = target: T1, GPR120; conditions: read-out: GPR120 EC50 historical; oleic acid; cited from earlier work
[4] = dose-response, oleic acid = 100

T2 sequence (Q9Y466 155-383 limits assumed): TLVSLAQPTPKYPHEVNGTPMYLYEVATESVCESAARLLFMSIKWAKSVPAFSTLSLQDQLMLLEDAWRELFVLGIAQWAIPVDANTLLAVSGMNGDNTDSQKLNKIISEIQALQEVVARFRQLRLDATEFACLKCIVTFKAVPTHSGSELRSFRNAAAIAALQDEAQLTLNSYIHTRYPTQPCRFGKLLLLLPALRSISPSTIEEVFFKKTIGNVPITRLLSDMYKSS
Sequence of GPR40 (FFAR1) (O14842 whole entry): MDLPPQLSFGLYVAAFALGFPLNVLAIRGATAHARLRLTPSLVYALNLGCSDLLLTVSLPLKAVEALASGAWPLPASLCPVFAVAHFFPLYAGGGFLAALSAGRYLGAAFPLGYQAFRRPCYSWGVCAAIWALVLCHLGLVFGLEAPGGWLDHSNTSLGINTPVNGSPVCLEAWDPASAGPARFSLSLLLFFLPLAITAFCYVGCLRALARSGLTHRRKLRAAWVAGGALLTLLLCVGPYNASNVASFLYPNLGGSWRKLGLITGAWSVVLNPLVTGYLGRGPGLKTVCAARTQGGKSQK

In the case of `CCCCCCCC/C=C\CCCCCCCC(=O)O` [oleic acid, reference compound], the EC50 (GPR40 (FFAR1); GPR40 EC50 measured) is reported as 37 µM, the GPR40 max. efficacy (GPR40 (FFAR1); [4]) is reported as 100% and the “right shift of GPR40 result relative to reported historical activity” value (GPR40 (FFAR1); measured vs historical EC50) is reported as ~20 fold. For the same compound, the EC50 (GPR120 [1]; GPR120 EC50 measured) was 15 µM, the GPR120 max. efficacy (GPR120 [1]; [4]) was 100% and the EC50 [2] was 3.55 µM. For the same compound, the “enhanced recruitment of a coactivator protein fragment” value [2] was 8.4 fold, the EC50 ([2]; ALPHA normalized, supplement, read-out: TLX EC50 (dose-response curves)) was 3.55 µM and the EC50 ([2]; coactivator recruitment, read-out: TLX EC50) was 3.6 µM. For the same compound, the TLX max. efficacy ([2]; oleic acid = 100) was 100%, the EC50 (GPR40) was 2 µM and the “concentration inducing insulin secretion” value (MIN6 cells) was ≥ 1 µM. The EC50 (GPR120 [3]) was 12 µM.
